Reference: US20100278687A1, “R[…] GYPSUM BOARD USING GASEOUS CHLORINE DIOXIDE” (SABRE INTELLECTUAL PROPERTY HOLDINGS COMPANY, LLC., priority 2009, published 2010)

Tests used:
[1] = after fumigation, visual
Experimental: The corrosivity potential of ClO2 on metals and bleaching potential of ClO2 on household carpeting were evaluated through pre- and post treatment visual observations made throughout the structure.
Corrosivity potential was assessed by observation of typical metal items present within the structure (e.g. screws, door hinges, HVAC system components, etc.). […] Each piece of copper was “scuffed” clean prior to fumigation to ensure that any changes in the metal due to ClO2 exposure would be readily recognizable. Photographs were taken of the copper pipe pieces before and after treatment to document visual observations made.

[2] = system: Bacillus atrophaeus spores; experiment: BI spore strip viability test, strips inside wall cavities during ClO2 fumigation; type: cell-based; details: Bacillus atrophaeus spore strips in wall cavities; incubated seven days; both positive controls grew
Description: BI Spore Strips—BI spore strips, each containing an approximate 2.5×103 titer of B. atrophaeus spores, were placed within wall cavities of the structure at the same 20 locations where wallboard samples had been collected, prior to insertion of the 2-inch expansion plugs. The B. atrophaeus species was selected due to its historical use as a biological indicator for ClO2 fumigations
Spore strips are thin cellulose pads that have been impregnated with a defined titer of bacterial spores. Each spore strip is encased in a Tyvek® pouch to allow for effective penetration of fumigant gas yet protect the strip from contamination by external sources. The BIs were obtained from SGM Biotech Inc., 10 Evergreen Drive, Suite E, Bozeman, Mont. (Lot #ACD-113e). All BIs were supplied from the same product batch in order to ensure uniformity in spore titer. Relevant production QA/QC data for the specific lot number have been kept on file for future reference.
All BIs were retrieved promptly following fumigation and sent to Sabre's Slingerlands, N.Y. laboratory facility for analysis. Each spore strip was aseptically placed in a growth media tube containing 15 milliliters of trypticase soy broth (BD Diagnostics product #221823, Lot # 7337460) and incubated at 37 degrees Centigrade. Spore strips were evaluated daily for the presence or absence of indicator organism growth for a total of seven days. […]

[3] = after fumigation, side-by-side with untreated carpet
Experimental: Bleaching potential of ClO2 was assessed by observation of carpet color and brightness throughout the structure both pre- and post-treatment. A piece of carpeting was also removed from a closet within the structure prior to fumigation and used for direct visual comparison with treated carpet following completion of the process.

[4] = system: sulfate-reducing bacteria (SRBs); experiment: SRB growth test (presence/absence) on unpainted wallboard paper before and after ClO2 fumigation of a house; type: cell-based; details: 20 wall and ceiling cavity locations, 12 of 20 positive before treatment; 13 hours, CT 5336-9727 ppmv-hours, about 45-52% RH
Experimental: SRBs—The efficacy of ClO2 gas in eliminating SRBs from Chinese wallboard material was evaluated by collecting samples of unpainted wallboard paper located inside wall cavities of the home prior to, and immediately after, ClO2 exposure. Unpainted wallboard paper from wall cavities was chosen for SRB testing because preliminary laboratory work done at Sabre's Slingerlands, N.Y. laboratory facility had shown SRBs to be concentrated in this media.
Pre-treatment wallboard paper samples were collected by drilling a two-inch circular core at selected wall and ceiling locations. To avoid damaging vapor barriers present within the home, samples were not collected from any bathroom or laundry room locations. Sample locations were selected to be representative wall cavities within the structure most likely to contain conditions conducive to SRB growth. In total, 20 sample locations were selected. Nine were wall cores and eleven were ceiling cores.
The wallboard holes created through SRB sampling were each sealed using a two-inch rubber expansion plug in order to ensure that ClO2 gas would not penetrate into wall cavities as a consequence of sampling activities.
Post-treatment wallboard paper samples were collected by drilling an identical two-inch circular core approximately one inch away from each of the 20 pre-treatment sample locations. […]

[5] = Olfactory observation of reduced-sulfur odors before and after treatment; details: Sabre personnel and independent observers; faint swimming pool like scent remained
Description: Subjective Odor Elimination—Reduced-sulfur compounds odors are extremely noxious and can be detected by the human olfactory (i.e. odor) sense at levels which are at or below the detection limits of sophisticated analytical instruments. As such, the olfactory senses of both Sabre personnel and independent observers were employed both pre- and post-treatment to gauge the effectiveness of ClO2 in ridding the test structure of reduced-sulfur compound odors.
Odor levels emanating from within the structure were observed both pre- and post-treatment for the “putrid” characteristic commonly associated with reduced-sulfur gases such as hydrogen sulfide, carbonyl sulfide and carbon disulfide that have been definitively shown by an FDOH study as being released from Chinese wallboard.

SRBs and sulfur bacteria = experiment: Chlorine dioxide fumigation of Chinese wallboard, SRB kill; type: cell-based; details: 65% RH and 65° F., enclosed structure
Experimental: Two square ([…]) samples of ⅝ inch Chinese wall board are collected from the structure that reported odor issues from different areas of the structure. […] The samples are split into four 25 cm×25 cm squares with the exposed ends of the sheetrock taped and painted with the same paint used within the structure. Two squares from each sample are placed into a chlorine dioxide fumigation chamber and fumigated with chlorine dioxide to a CT value of 9000 ppmv hours at 65% RH and 65° F. The other two squares from each sample are held in sealed bags as test blanks.
Upon completion of the test, each of the samples can be sampled as follows: Each core sample is homogenized in 10 ml of an anaerobic SRB broth, and 1 ml of the broth is transferred to 10 ml of broth in an anaerobic container and diluted serially out to a 104th dilution. The broth bottles are incubated at 25° C. for 21 days. Each day growth is recorded, and a lab blank negative control is performed on the initial broth.

[O][Cl+][O-] [ClO2, chlorine dioxide]
Corrosive effect on common metal items in the structure [1]: no corrosive effect was visible
Changes in scuffed copper pipe pieces ([1]; some pieces had a gold-like tint): no changes were observed
Surrogate test organism growth on BI spore strips after ClO2 treatment [2]: negative for surrogate test organism growth
Bleaching effect on carpet color and brightness [3]: no meaningful bleaching effect
SRB growth after ClO2 treatment [4]: negative for SRB growth
Reduced-sulfur gas odors after fumigation [5]: completely eliminated
CT of fumigation that eliminates growth of SRBs and sulfur bacteria and oxidizes reactive sulfides (SRBs and sulfur bacteria): about 9000 ppmv hours
